Assay [1] concerns cccDNA level in HepDES19 cells. Kind of assay: cccDNA Southern Blot assay. Particulars: 5 days' compound treatment, Hirt DNA, serial dilutions. The format is cell-based, HBV. The method, then: HepDES19 cells were seeded at 4×10^6 cells per T150 in the culture medium (Dulbecco's Modified Eagle Medium: Nutrient Mixture F-12 (DMEM:F12, Gibco Cat. 11320-82), 10% Fetal Bovine Serum (FBS, Clontech Cat. 631101), 0.1 mM Non-Essential Amino Acids Solution (NEAA, Gibco Cat. 11140-050), […] Penicillin-Streptomycin (PS, Invitrogen Cat. 15140-163), 500 μg/mL Geneticin (G418, Invitrogen Cat. 10131-027) in the absence of Tet for 8 days. These cells were seeded at the density of 1×10^6 cells per well in 6-well plate. At 24 hrs after seeding, serial dilutions of compounds made with DMSO (Sigma, Cat. D2650) were further diluted with the same culture medium as described above before they were added to the cells to reach desired final compound concentrations and 1% DMSO concentration. After 5 days' compound treatment, the cells growing in one well from 6-well plate were re-suspended with 500 μL re-suspension buffer (50 mM tris[hydroxymethyl]aminomethane pH 7.5), 10 mM ethylenediaminetetraacetic acid (EDTA), 50 μg/mL RNase A (Qiagen, Cat. 158922). 500 μL of 1.2% sodium dodecyl sulfate (SDS) was then added into the re-suspended cells to lyse the cells. After 15 minutes' incubation, 700 μL precipitation buffer (3M cesium chloride, 1M potassium acetate, 0.67M acetic acid) was added and the lysate was incubated at 4° C. for 2 h. The lysate was centrifuged at 15000 revolutions per minute (RPM) at 4° C. for 15 minutes. The supernatant was collected and loaded onto Qiagen miniprep columns (QIAprep spin Mini prep kit, Cat. No. 27016). After centrifugation for 1 minute at 15000 RPM, the column was washed once with 750 µL wash buffer PE from QIAprep spin Mini prep kit. 80 μL of double distilled water was loaded to the columns to elute Hirt DNA.
Hirt DNA of each sample was loaded into 1.2% lx tris-acetate electrophoresis (TAE) agarose gel and separated at 90 voltages for 3 hours. The gel was then treated in 50 mM NaAc—HAc, pH4.2 for 30 min at room temperature (RT), and then denatured by soaking in denaturation buffer (0.5 M sodium hydroxide, 1.5 M sodium chloride) at RT for 30-45 min. The gel was then treated with neutralization buffer (1M tris[hydroxymethyl]aminomethane pH7.4 and 1.5M NaCl) at RT for 30 to 45 min.
The gel was transferred onto a pre-wet Nylon membrane (GE life science, Hybond N+) by capillary transfer method overnight, followed by UV crosslinking. The membrane was transferred into a hybridization tube, then rinsed with double distilled water at 60° C. for 5 mins. 10 mL of hybridization buffer (Lab kits, China) was added, the resulting sample was rotated in hybridization oven at 60° C. for 1 hour. Digoxigenin (DIG)-labelled HBV probe (SEQ ID NO: 1) was denatured at 95° C. for 10 minutes, and then 7 μL of denatured probe was added to the hybridization tube, which was rotated in hybridization oven at 60° C. overnight.
On the second day, the membrane was washed according to the procedure of DIG wash and block buffer set kit (Roche, Cat. 11 585 762 001), and then incubated with 50 mL antibody solution (Antibody anti-Digoxigenin-AP Fab fragment (Roche Cat. 11093274910) diluted in fresh 1× blocking buffer at 1:10,000) for 1 hour. The membrane was washed with 50 mL washing buffer (1× Maleic buffer with 0.3% Tween-20) for 15 minutes twice, and equilibrated with 20 mL detection buffer (0.1M tris[hydroxymethyl]aminomethane pH9.5, 0.1M sodium chloride) for 5 minutes. CDP-Star substrate (Roche, Cat. 12041677001) was added to the membrane for 5 minutes, and then the membrane was scanned by Bio-Rad Visualize Image System (Biorad, ChemiDoc-MP, Serial No. 731BR00916).

The test system of assay [2] is extracellular HBsAg level in HBV-infected PHH. Kind of assay: Cryopreserved primary human hepatocytes (PHH) assay, HBsAg. The format is cell-based. The following applies: Hepatitis B virus, Hepatocyte, 216 h, read-out: HBsAg IC50. On the procedure:
Cryopreserved PHH (BioreclamationIVT, Lot YJM) was thawed at 37° C. and gently transferred into pre-warmed InVitroGRO HT medium (BioreclamationIVT, Cat. S03317). The mixture was centrifuged at 70 relative centrifugal force (RCF) for 3 minutes at RT, and the supernatant was discarded. Pre-warmed InVitroGRO CP medium (BioreclamationIVT, Cat # S03316) was added to the cell pellet to gently re-suspend cells. The cells were seeded at the density of 5.8×10^4 cells per well to collagen I coated 96-well plate (Gibco, Cat. A1142803) with the InVitroGRO CP medium. All plates were incubated at 37° C. with 5% CO2 and 85% humidity.
At 20 hours after plating, the medium was changed to PHH culture medium (Dulbecco's Modified Eagle Medium (DMEM)/F12 (1:1) (Gibco, Cat. 11320-033), 10% fetal bovine serum (Gibco Cat. 10099141), 100 U/mL penicillin, 100 μg/mL streptomycin (Gibco, Cat. 151401-122), 5 ng/mL human epidermal growth factor (Invitrogen Cat. PHG0311L), 20 ng/mL dexamethasone (Sigma, Cat. D4902) and 250 ng/mL human recombinant insulin (Gibco, Cat. 12585-014)). And the cells were incubated at 37° C. with 5% CO2 and 85% humidity for 4 hours. The medium was then changed to pre-warmed PHH culture medium containing 4% polyethylene glycol (PEG) MW8000 (Sigma, Cat. P1458-50ML) and 1% DMSO (Sigma, Cat. D2650). 5.8×10^6 genomic equivalents of HBV were added into the medium.
At 24 hours post-infection, the cells were gently washed with PBS and refreshed with PHH culture medium supplemented with 1% DMSO, and 0.25 mg/mL Matrix gel (Corning, Cat. 356237) at 200 μL per well. All plates were immediately placed in at 37° C. CO2 incubator.
24 hours later, serial dilutions of compounds made with DMSO were further diluted with the same culture medium (PHH culture medium supplemented with 1% DMSO and 0.25 mg/mL Matrix gel as described above) before they were added to the cells to reach desired final compound concentrations and 1% DMSO concentration. The medium containing the compounds were refreshed every three days.
At 9 days post-compound treatment, extracellular HBsAg level were measured with Chemiluminescence Immuno Assay (CLIA) kit (Autobio, HBsAg Quantitative CLIA). Extracellular HBV DNA was extracted by MagNA Pure 96 system (Roche) and then determined by quantitative PCR with the following primers and probe: HBV-Forward Primer (SEQ ID NO:2): […] (5′ to 3′); HBV-Reverse Primer (SEQ ID NO:3): […](5′ to 3′); HBV-Probe: 5′+tetramethylrhodamine+SEQ ID NO:4+black hole quencher 2-3′, wherein SEQ ID NO:4 is […].
HBsAg IC50 and HBV DNA IC50 values were derived from the dose-response curve using 4 parameter logistic curve fit method.

For the compound `O=C(O)[C@H]1CCN(c2ccc3c(=O)c4cccc(Cl)c4oc3c2)C1` [Example 4, (3S)-1-(5-chloro-9-oxo-xanthen-3-yl)pyrrolidine-3-carboxylic acid], the “cccDNA level in HepDES19 cells (Southern Blot)” value (from here on “cccDNA level in HepDES19 cells”) in assay [1] is on record as “dose-dependently reduced cccDNA level”. Further, the IC50 in assay [2] is 1.58 µM.
`O=C(O)C1CCN(c2ccc3c(=O)c4cccc(Cl)c4oc3c2)C1` (stereo not shown) [Example 2, 1-(5-chloro-9-oxo-xanthen-3-yl)pyrrolidine-3-carboxylic acid]: the “cccDNA level in HepDES19 cells” value in assay [1] is recorded as “dose-dependently reduced cccDNA level”. Moreover, the half-maximal inhibitory concentration (IC50) in assay [2] is 1.33 µM.
In the case of `O=C(O)C1CCN(c2ccc3c(=O)c4c(Cl)ccc(Cl)c4oc3c2)C1` (stereo not shown) [Example 26, 1-(5,8-dichloro-9-oxo-xanthen-3-yl)pyrrolidine-3-carboxylic Acid], in assay [1], the “cccDNA level in HepDES19 cells” value is “dose-dependently reduced cccDNA level”. Moreover, in assay [2], the IC50 came out at 1.17 µM.
For the compound `O=C(O)C1CCN(c2ccc3c(=O)c4cccc(F)c4oc3c2)C1` (stereo not shown) [Example 5, 1-(5-fluoro-9-oxo-xanthen-3-yl)pyrrolidine-3-carboxylic acid], in assay [1], the “cccDNA level in HepDES19 cells” value was “dose-dependently reduced cccDNA level”. The IC50 in assay [2] stood at 17.8 µM.
In the case of `O=C(O)[C@@H]1CCN(c2ccc3c(=O)c4cccc(Cl)c4oc3c2)C1` [Example 3, (3R)-1-(5-chloro-9-oxo-xanthen-3-yl)pyrrolidine-3-carboxylic acid], the “cccDNA level in HepDES19 cells” value in assay [1] is “dose-dependently reduced cccDNA level”. The 50% inhibitory concentration (IC50) in assay [2] was found to be 1.64 µM.

For orientation: IC50 means the point on the concentration scale where inhibition reaches its midpoint.

The values above are taken from patent US10611748B2, “Xanthone derivatives for the treatment of hepatitis B virus disease” (Hoffmann-La Roche Inc., priority 2017, dated 2020).
